Measured values from the NIST ThermoML archive (doi:10.1016/j.jct.2012.08.018).
± gives the expanded uncertainty stated by the source.

Experiment: molar enthalpy of vaporization or sublimation
Settings: 298.15 K; Crystal; Static calorimetry

Structure (SMILES) | molar enthalpy [kcal/mol]
COC(N)=O [carbamic acid, methyl ester] | 17.6 ± 0.311
CCOC(N)=O [ethyl carbamate] | 18.6 ± 0.335
